Results published in patent publication US20050209157A1, “Short bioactive peptides and methods for their use” (priority 2001, published 2005).
Residues, ends and D or L forms follow the SMILES beside them. No end group written: not given here.

Tests used:
[1] = test system: yeast (Saccharomyces cerevisiae); experiment: Antimicrobial assay I, yeast assay in RPMI 1640; type: cell-based; settings: RPMI 1640 media
[2] = test system: human red blood cells (RBC); experiment: in vitro; type: cell-based; settings: hemolytic assay, concentration at 50% hemolysis, 1 hour at 37° C.
[3] = test system: Pseudomonas aeruginosa ATCC 9027; experiment: Antimicrobial assay I, MIC by OD measurement; type: cell-based; settings: 37° C. for 24 hours, absorbance 620 nm
[4] = test system: Staphylococcus aureus ATCC 6538; experiment: Antimicrobial assay I, MIC by OD measurement; type: cell-based; settings: 37° C. for 24 hours, absorbance 620 nm
HeLaS3 = experiment: Anti-cancer assay, MTT, LD50; type: cell-based; settings: 24 hours with peptide, cervical carcinoma
Text: (§1) Numbers are LD50 values (μg/mL).

PC3 = experiment: Anti-cancer assay, MTT, LD50; type: cell-based; settings: 24 hours with peptide, prostate adenocarcinoma
Text: as §1

SW480 = experiment: Anti-cancer assay, MTT, LD50; type: cell-based; settings: SW480 colon adenocarcinoma line, 24 hours with peptide
Text: as §1

MCF7 = experiment: Anti-cancer assay, MTT, LD50; type: cell-based; settings: MCF7 breast adenocarcinoma line, MTT, 24 hours with peptide
Text: as §1

H1299 = experiment: Anti-cancer assay, MTT, LD50; type: cell-based; settings: 24 hours with peptide, lung large cell carcinoma
Text: as §1

BMKC = experiment: Anti-cancer assay, MTT, LD50; type: cell-based; settings: BMKC cloned melanoma line, 24 hours with peptide
Text: as §1

WI38 = settings: MTT, 24 hours with peptide; for WI38 LD50: normal fibroblast line; for LD50 WI38: WI38 normal lung fibroblast line

## KAKLAKKALAKLL-NH2 [P149]
[1]
  yeast (MIC or MFC): 200 µg/mL
[2]
  LD50: > (> indicates greater than 1000)
[3]
  paerug9027 (MIC): 100 µg/mL
[4]
  staph6538 (MIC): 50 µg/mL
HeLaS3
  HeLaS3 LD50: > (> indicates greater than 1000)
PC3
  PC3 LD50: > (> indicates greater than 1000)
SW480
  LD50 SW480: > (> indicates greater than 1000)
MCF7
  LD50 MCF7: > (> indicates greater than 1000)
H1299
  H1299 LD50: > (> indicates greater than 1000)
BMKC
  LD50 BMKC: > (> indicates greater than 1000)
WI38
  WI38 LD50: > (> indicates greater than 1000)
  LD50 WI38: > (> indicates greater than 1000)

## FAKKALKALKKL-NH2 [P47]
[1]
  yeast (MIC or MFC): 50 µg/mL
[2]
  LD50: > (> indicates greater than 1000)
[3]
  paerug9027 (MIC): 100 µg/mL
[4]
  staph6538 (MIC): 200 µg/mL
HeLaS3
  HeLaS3 LD50: > (> indicates greater than 1000)
PC3
  PC3 LD50: > (> indicates greater than 1000)
SW480
  LD50 SW480: > (> indicates greater than 1000)
MCF7
  LD50 MCF7: 575 µg/mL
H1299
  H1299 LD50: > (> indicates greater than 1000)
BMKC
  LD50 BMKC: 700 µg/mL
WI38
  WI38 LD50: > (> indicates greater than 1000)
  LD50 WI38: > (> indicates greater than 1000)

## FAKLF-NH2 [P129, FAKLF-NH2]
[1]
  yeast (MIC or MFC): 100 µg/mL
[2]
  LD50: > (> indicates greater than 1000)
[3]
  paerug9027 (MIC): 25 µg/mL
[4]
  staph6538 (MIC): 100 µg/mL
HeLaS3
  HeLaS3 LD50: 550 µg/mL
PC3
  PC3 LD50: > (> indicates greater than 1000)
SW480
  LD50 SW480: 550 µg/mL
MCF7
  LD50 MCF7: > (> indicates greater than 1000)
H1299
  H1299 LD50: 790 µg/mL
BMKC
  LD50 BMKC: > (> indicates greater than 1000)
WI38
  WI38 LD50: > (> indicates greater than 1000)
  LD50 WI38: > (> indicates greater than 1000)

## FAKKLKKLAKKL-NH2 [P79]
[1]
  yeast (MIC or MFC): 100 µg/mL
[2]
  LD50: > (> indicates greater than 1000)
[3]
  paerug9027 (MIC): 200 µg/mL
[4]
  staph6538 (MIC): 100 µg/mL
HeLaS3
  HeLaS3 LD50: > (> indicates greater than 1000)
PC3
  PC3 LD50: > (> indicates greater than 1000)
SW480
  LD50 SW480: > (> indicates greater than 1000)
MCF7
  LD50 MCF7: 540 µg/mL
H1299
  H1299 LD50: > (> indicates greater than 1000)
BMKC
  LD50 BMKC: 830 µg/mL
WI38
  WI38 LD50: > (> indicates greater than 1000)
  LD50 WI38: > (> indicates greater than 1000)

## FAFAKIIAKIAKKII-NH2 [P140]
[1]
  yeast (MIC or MFC): > (> indicates greater than 200 μg/mL)
[2]
  LD50: > (> indicates greater than 1000)
[3]
  paerug9027 (MIC): > (> indicates greater than 200 μg/mL)
[4]
  staph6538 (MIC): > (> indicates greater than 200 μg/mL)
HeLaS3
  HeLaS3 LD50: 285 µg/mL
PC3
  PC3 LD50: > (> indicates greater than 1000)
SW480
  LD50 SW480: > (> indicates greater than 1000)
MCF7
  LD50 MCF7: > (> indicates greater than 1000)
H1299
  H1299 LD50: > (> indicates greater than 1000)
BMKC
  LD50 BMKC: > (> indicates greater than 1000)
WI38
  WI38 LD50: > (> indicates greater than 1000)
  LD50 WI38: > (> indicates greater than 1000)

## FAKGVGKVGKKAL-NH2 [P137, FAKGVGKVGKKAL-NH2]
[1]
  yeast (MIC or MFC): > (> indicates greater than 200 μg/mL)
[2]
  LD50: > (> indicates greater than 1000)
[3]
  paerug9027 (MIC): > (> indicates greater than 200 μg/mL)
[4]
  staph6538 (MIC): > (> indicates greater than 200 μg/mL)
HeLaS3
  HeLaS3 LD50: > (> indicates greater than 1000)
PC3
  PC3 LD50: > (> indicates greater than 1000)
SW480
  LD50 SW480: > (> indicates greater than 1000)
MCF7
  LD50 MCF7: > (> indicates greater than 1000)
H1299
  H1299 LD50: > (> indicates greater than 1000)
BMKC
  LD50 BMKC: > (> indicates greater than 1000)
WI38
  WI38 LD50: > (> indicates greater than 1000)
  LD50 WI38: > (> indicates greater than 1000)

## FAFGKGIGKVGKKLL-NH2 [P133]
[1]
  yeast (MIC or MFC): > (> indicates greater than 200 μg/mL)
[2]
  LD50: > (> indicates greater than 1000)
[3]
  paerug9027 (MIC): > (> indicates greater than 200 μg/mL)
[4]
  staph6538 (MIC): > (> indicates greater than 200 μg/mL)
HeLaS3
  HeLaS3 LD50: > (> indicates greater than 1000)
PC3
  PC3 LD50: > (> indicates greater than 1000)
SW480
  LD50 SW480: > (> indicates greater than 1000)
MCF7
  LD50 MCF7: > (> indicates greater than 1000)
H1299
  H1299 LD50: > (> indicates greater than 1000)
BMKC
  LD50 BMKC: > (> indicates greater than 1000)
WI38
  WI38 LD50: > (> indicates greater than 1000)
  LD50 WI38: > (> indicates greater than 1000)

## FAKIIAKIAKKI-NH2 [P143]
[1]
  yeast (MIC or MFC): 200 µg/mL
[2]
  LD50: > (> indicates greater than 1000)
[3]
  paerug9027 (MIC): 50 µg/mL
[4]
  staph6538 (MIC): 100 µg/mL
HeLaS3
  HeLaS3 LD50: > (> indicates greater than 1000)
PC3
  PC3 LD50: > (> indicates greater than 1000)
SW480
  LD50 SW480: > (> indicates greater than 1000)
MCF7
  LD50 MCF7: > (> indicates greater than 1000)
H1299
  H1299 LD50: > (> indicates greater than 1000)
BMKC
  LD50 BMKC: > (> indicates greater than 1000)
WI38
  WI38 LD50: > (> indicates greater than 1000)
  LD50 WI38: > (> indicates greater than 1000)

## CC(C)C[C@H](NC(=O)[C@H](C)NC(=O)[C@@H](N)Cc1ccccc1)C(=O)N[C@@H](C)C(N)=O [P183, FALA-NH2] (H-FALA-NH2; N-terminus assumed)
[1]
  yeast (MIC or MFC): 200 µg/mL
[2]
  LD50: > (> indicates greater than 1000)
[3]
  paerug9027 (MIC): 100 µg/mL
[4]
  staph6538 (MIC): 200 µg/mL
HeLaS3
  HeLaS3 LD50: > (> indicates greater than 1000)
PC3
  PC3 LD50: > (> indicates greater than 1000)
SW480
  LD50 SW480: > (> indicates greater than 1000)
MCF7
  LD50 MCF7: > (> indicates greater than 1000)
H1299
  H1299 LD50: > (> indicates greater than 1000)
BMKC
  LD50 BMKC: > (> indicates greater than 1000)
WI38
  WI38 LD50: > (> indicates greater than 1000)
  LD50 WI38: > (> indicates greater than 1000)

## FALKALKK-NH2 [P145]
[1]
  yeast (MIC or MFC): 200 µg/mL
[2]
  LD50: > (> indicates greater than 1000)
[3]
  paerug9027 (MIC): 100 µg/mL
[4]
  staph6538 (MIC): 200 µg/mL
HeLaS3
  HeLaS3 LD50: 240 µg/mL
PC3
  PC3 LD50: > (> indicates greater than 1000)
SW480
  LD50 SW480: > (> indicates greater than 1000)
MCF7
  LD50 MCF7: > (> indicates greater than 1000)
H1299
  H1299 LD50: > (> indicates greater than 1000)
BMKC
  LD50 BMKC: > (> indicates greater than 1000)
WI38
  WI38 LD50: > (> indicates greater than 1000)
  LD50 WI38: > (> indicates greater than 1000)

## FAKKLAKLAKKL-NH2 [P106]
[1]
  yeast (MIC or MFC): 100 µg/mL
[2]
  LD50: > (> indicates greater than 1000)
[3]
  paerug9027 (MIC): 25 µg/mL
[4]
  staph6538 (MIC): 100 µg/mL
HeLaS3
  HeLaS3 LD50: 700 µg/mL
PC3
  PC3 LD50: > (> indicates greater than 1000)
SW480
  LD50 SW480: 570 µg/mL
MCF7
  LD50 MCF7: 620 µg/mL
H1299
  H1299 LD50: 920 µg/mL
BMKC
  LD50 BMKC: 690 µg/mL
WI38
  WI38 LD50: > (> indicates greater than 1000)
  LD50 WI38: > (> indicates greater than 1000)
